What was measured:
Assay in all cases: Fluorescence after 24 hours, serial dilutions in Trypticase Soy broth
Format in all cases: cell-based
[1] = tested on: Brevundimonas vesicularis (ATCC 11426)
Method: (§1) This experiment was performed to test 7-nitrocoumarin-3-carboxylic acid on sixteen (16) different types of microorganism, including one yeast species.
(§2) A mass of 10 mg of the indicator was dissolved in 4 ml of hot, distilled water and this solution was then added to 96 ml of Trypticase Soy broth. The resultant mixture was sterile-filtered.
(§3) All the microorganisms were grown for 24 hours in Trypticase Soy broth at 35° C. Each culture was then diluted 1,000-fold in Trypticase Soy broth and then serial 10-fold dilutions were made in more Trypticase Soy broth until the test aliquot contained no more microbial cells.
(§4) The resultant dilutions ranged from 10^−3 to 10^−13.
(§5) Fifty microliters of each dilution plus 50 μl of Trypticase Soy broth were added to wells of a microtiter plate with or without 7-nitrocoumarin-3-carboxylic acid.
(§6) The plates were read (T zero) and then incubated at 35° C. before being read again after 24 hours. Two different readings were made at each time point:
(§7) of the fluorescence (excitation at 365 nm and emission at 440 nm), using a Biolite F1 2001 fluorometer (Labtech International Limited), for wells containing 7-nitrocoumarin-3-carboxylic acid.

[2] = tested on: Acinetobacter calcoaceticus (ATCC 7844)
Method: as §1, §2, §3, §4, §5, §6, §7

[3] = tested on: Pseudomonas putida (ATCC 12633)
Method: as §1, §2, §3, §4, §5, §6, §7

[4] = tested on: Streptococcus mitis (NCTC 12261)
Method: as §1, §2, §3, §4, §5, §6, §7

[5] = tested on: Shewanella putrefaciens (ATCC 8071)
Method: as §1, §2, §3, §4, §5, §6, §7

[6] = tested on: Serratia marcescens (NCTC 10211)
Method: as §1, §2, §3, §4, §5, §6, §7

[7] = tested on: Pseudomonas fluorescens (ATCC 13525)
Method: as §1, §2, §3, §4, §5, §6, §7

[8] = tested on: Acinetobacter baumanii (ATCC 19606)
Method: as §1, §2, §3, §4, §5, §6, §7

[9] = tested on: Acinetobacter haemolyticus (ATCC 17906)
Method: as §1, §2, §3, §4, §5, §6, §7

[10] = tested on: Moraxella nonliquefaciens (ATCC 19975)
Method: as §1, §2, §3, §4, §5, §6, §7

[11] = tested on: Moraxella osloensis (ATCC 19976)
Method: as §1, §2, §3, §4, §5, §6, §7

## O=C(O)c1cc2ccc([N+](=O)[O-])cc2oc1=O [7-nitrocoumarin-3-carboxylic acid]
[1]; dilution 10^−3
  Fluorescence reading: 2543
[1]; dilution 10^−4
  Fluorescence reading: 1962
[1]; dilution 10^−5
  Fluorescence reading: 1861
[1]; dilution 10^−6
  Fluorescence reading: 1941
[1]; dilution 10^−7
  Fluorescence reading: 1928
[1]; dilution 10^−8
  Fluorescence reading: 1889
[1]; dilution 10^−9
  Fluorescence reading: 1929
[1]; dilution 10^−10
  Fluorescence reading: 1910
[1]; dilution 10^−11
  Fluorescence reading: 1938
[1]; dilution 10^−12
  Fluorescence reading: 1919
[1]; dilution 10^−13
  Fluorescence reading: 1877
[2]; dilution 10^−3
  Fluorescence reading: 29657
[2]; dilution 10^−4
  Fluorescence reading: 18288
[2]; dilution 10^−5
  Fluorescence reading: 12311
[2]; dilution 10^−6
  Fluorescence reading: 12223
[2]; dilution 10^−7
  Fluorescence reading: 11635
[2]; dilution 10^−8
  Fluorescence reading: 14858
[2]; dilution 10^−9
  Fluorescence reading: 13353
[2]; dilution 10^−10
  Fluorescence reading: 10862
[2]; dilution 10^−11
  Fluorescence reading: 1712
[2]; dilution 10^−12
  Fluorescence reading: 1654
[2]; dilution 10^−13
  Fluorescence reading: 1699
[3]; dilution 10^−3
  Fluorescence reading: 12589
[3]; dilution 10^−4
  Fluorescence reading: 9810
[3]; dilution 10^−5
  Fluorescence reading: 7670
[3]; dilution 10^−6
  Fluorescence reading: 6806
[3]; dilution 10^−7
  Fluorescence reading: 5714
[3]; dilution 10^−8
  Fluorescence reading: 1715
[3]; dilution 10^−9
  Fluorescence reading: 1664
[3]; dilution 10^−10
  Fluorescence reading: 1660
[3]; dilution 10^−11
  Fluorescence reading: 1651
[3]; dilution 10^−12
  Fluorescence reading: 1660
[3]; dilution 10^−13
  Fluorescence reading: 1657
[4]; dilution 10^−3
  Fluorescence reading: 20988
[4]; dilution 10^−4
  Fluorescence reading: 21541
[4]; dilution 10^−5
  Fluorescence reading: 19899
[4]; dilution 10^−6
  Fluorescence reading: 19619
[4]; dilution 10^−7
  Fluorescence reading: 17228
[4]; dilution 10^−8
  Fluorescence reading: 1682
[4]; dilution 10^−9
  Fluorescence reading: 1676
[4]; dilution 10^−10
  Fluorescence reading: 1691
[4]; dilution 10^−11
  Fluorescence reading: 1636
[4]; dilution 10^−12
  Fluorescence reading: 1644
[4]; dilution 10^−13
  Fluorescence reading: 1669
[5]; dilution 10^−3
  Fluorescence reading: 40277
[5]; dilution 10^−4
  Fluorescence reading: 37262
[5]; dilution 10^−5
  Fluorescence reading: 34890
[5]; dilution 10^−6
  Fluorescence reading: 32034
[5]; dilution 10^−7
  Fluorescence reading: 31793
[5]; dilution 10^−8
  Fluorescence reading: 1911
[5]; dilution 10^−9
  Fluorescence reading: 1902
[5]; dilution 10^−10
  Fluorescence reading: 1972
[5]; dilution 10^−11
  Fluorescence reading: 1917
[5]; dilution 10^−12
  Fluorescence reading: 1935
[5]; dilution 10^−13
  Fluorescence reading: 1990
[6]; dilution 10^−3
  Fluorescence reading: 47178
[6]; dilution 10^−4
  Fluorescence reading: 49470
[6]; dilution 10^−5
  Fluorescence reading: 45804
[6]; dilution 10^−6
  Fluorescence reading: 45454
[6]; dilution 10^−7
  Fluorescence reading: 45637
[6]; dilution 10^−8
  Fluorescence reading: 43088
[6]; dilution 10^−9
  Fluorescence reading: 48320
[6]; dilution 10^−10
  Fluorescence reading: 1678
[6]; dilution 10^−11
  Fluorescence reading: 1641
[6]; dilution 10^−12
  Fluorescence reading: 1636
[6]; dilution 10^−13
  Fluorescence reading: 1621
[7]; dilution 10^−3
  Fluorescence reading: 8985
[7]; dilution 10^−4
  Fluorescence reading: 1774
[7]; dilution 10^−5
  Fluorescence reading: 1657
[7]; dilution 10^−6
  Fluorescence reading: 1625
[7]; dilution 10^−7
  Fluorescence reading: 1716
[7]; dilution 10^−8
  Fluorescence reading: 1690
[7]; dilution 10^−9
  Fluorescence reading: 1736
[7]; dilution 10^−10
  Fluorescence reading: 1666
[7]; dilution 10^−11
  Fluorescence reading: 1691
[7]; dilution 10^−12
  Fluorescence reading: 1666
[7]; dilution 10^−13
  Fluorescence reading: 1624
[8]; dilution 10^−3
  Fluorescence reading: 27016
[8]; dilution 10^−4
  Fluorescence reading: 11695
[8]; dilution 10^−5
  Fluorescence reading: 12525
[8]; dilution 10^−6
  Fluorescence reading: 8912
[8]; dilution 10^−7
  Fluorescence reading: 6953
[8]; dilution 10^−8
  Fluorescence reading: 1651
[8]; dilution 10^−9
  Fluorescence reading: 1705
[8]; dilution 10^−10
  Fluorescence reading: 1718
[8]; dilution 10^−11
  Fluorescence reading: 1678
[8]; dilution 10^−12
  Fluorescence reading: 1687
[8]; dilution 10^−13
  Fluorescence reading: 1660
[9]; dilution 10^−3
  Fluorescence reading: 19231
[9]; dilution 10^−4
  Fluorescence reading: 17403
[9]; dilution 10^−5
  Fluorescence reading: 12614
[9]; dilution 10^−6
  Fluorescence reading: 9727
[9]; dilution 10^−7
  Fluorescence reading: 4236
[9]; dilution 10^−8
  Fluorescence reading: 1981
[9]; dilution 10^−9
  Fluorescence reading: 1938
[9]; dilution 10^−10
  Fluorescence reading: 2005
[9]; dilution 10^−11
  Fluorescence reading: 1947
[9]; dilution 10^−12
  Fluorescence reading: 1904
[9]; dilution 10^−13
  Fluorescence reading: 1938
[10]; dilution 10^−3
  Fluorescence reading: 28160
[10]; dilution 10^−4
  Fluorescence reading: 27889
[10]; dilution 10^−5
  Fluorescence reading: 28439
[10]; dilution 10^−6
  Fluorescence reading: 27648
[10]; dilution 10^−7
  Fluorescence reading: 27385
[10]; dilution 10^−8
  Fluorescence reading: 27196
[10]; dilution 10^−9
  Fluorescence reading: 1974
[10]; dilution 10^−10
  Fluorescence reading: 2057
[10]; dilution 10^−11
  Fluorescence reading: 2002
[10]; dilution 10^−12
  Fluorescence reading: 1956
[10]; dilution 10^−13
  Fluorescence reading: 1907
[11]; dilution 10^−3
  Fluorescence reading: 11426
[11]; dilution 10^−4
  Fluorescence reading: 9949
[11]; dilution 10^−5
  Fluorescence reading: 7700
[11]; dilution 10^−6
  Fluorescence reading: 5875
[11]; dilution 10^−7
  Fluorescence reading: 1925
[11]; dilution 10^−8
  Fluorescence reading: 1941
[11]; dilution 10^−9
  Fluorescence reading: 1977
[11]; dilution 10^−10
  Fluorescence reading: 2039
[11]; dilution 10^−11
  Fluorescence reading: 1938
[11]; dilution 10^−12
  Fluorescence reading: 1907
[11]; dilution 10^−13
  Fluorescence reading: 1945

Reference: patent publication US20020031795A1, “Nitrocoumarins for detecting all micro-organisms” (priority 1998, published 2002)
